The values that follow come from PubChem BioAssay (NCI).

“And” between values parts separate entries of the source, which are not always exact repeats. Equal entries are not always repeated.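 48-hour exposure; five concentrations; linearly interpolated endpoints. GI50: concentration for 50% inhibition of growth. TGI denotes the concentration required for complete inhibition of growth.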

Common to all, as to assay: NCI-60 cell line screen, 48 h
Experiment [1] has as its system NCI-H23 lung.
Experiment [2] deals with BT-549 breast.
The subject of experiment [3] is MDA-MB-435.
For experiment [4], the system named is HOP-92 NSCLC.
The test system of experiment [5] is SN12C renal.
Experiment [6] relates to NCI-H522 lung.
The test system of experiment [7] is SW-620 colon.
The subject of experiment [8] is MDA-MB-231 breast.
For experiment [9], the system named is UO-31 renal.
Experiment [10] deals with SF-539 CNS.
In experiment [11] the test system is ACHN renal.

As to `CSc1ccc2c(cc1=O)[C@@H](NC(=O)c1ccc(N)cc1)CCc1cc(O)c(O)c(O)c1-2`, the GI50 was 22.3 µM and 10.4 µM in [1]; 18.7 µM and 8.21 µM in [7]; 47.2 µM and 19.9 µM in experiment [8]. For the same compound, the TGI was 50.9 µM and 69.7 µM in experiment [1]; 38.2 µM and 52.3 µM in experiment [2]; 51 µM and > 100 µM in experiment [3]; > 100 µM in experiment [4]; > 75 µM and 90.1 µM in experiment [5]; 42.5 µM and 50.5 µM in experiment [6]. Further, the TGI in experiment [7] is > 100 µM; in [8] it was > 75 µM and 79.6 µM; in experiment [9], 33.8 µM and > 100 µM; in experiment [10], 27.6 µM; in [11] it was 37.4 µM and 43.8 µM.

With `O=C1CSC(c2cccc(Oc3ccccc3)c2)N1c1ccc(Cl)cc1` (configuration not stated), the TGI is > 100 µM in experiment [1]; > 100 µM in [2]; 87.7 µM in experiment [3]; 65.7 µM in experiment [4]; > 100 µM in experiment [5]; 49.4 µM in experiment [6]. Further, the TGI was > 100 µM in experiment [7]; > 100 µM in experiment [8]; > 100 µM in [9]; > 100 µM in experiment [10]; 75 µM in experiment [11].

`CC(=O)OCC12C(=O)C[C@@H](C)C3(CC(c4ccoc4)OC3=O)C1CCC(OC(C)=O)C21CO1` (some centres not stated): the TGI in experiment [1], in experiment [2], in experiment [3], in [4], in [5] and in [6] was > 100 µM throughout. The TGI in experiment [7], in [8], in [9], in [10] and in [11] was > 100 µM in each case.

For the compound `Nc1cc2[nH]c(=O)c(=O)[nH]c2cc1N`, the TGI in experiment [1], in experiment [2], in experiment [3], in [4], in experiment [5] and in experiment [6] was > 100 µM throughout. For the same compound, the TGI in experiment [7], in experiment [8], in experiment [9], in [10] and in experiment [11] was > 100 µM throughout.

As for `CON(C)C(=O)CNC(=O)OCC1c2ccccc2-c2ccccc21`, the TGI in experiment [1], in experiment [2], in experiment [3], in [4], in experiment [5] and in experiment [6] was > 100 µM throughout. The TGI in experiment [7], in experiment [8], in [9], in experiment [10] and in experiment [11] was > 100 µM each time.

For the compound `CCOC(=O)N/N=C(/N)c1cccc([N+](=O)[O-])c1`, the TGI in experiment [1], in [2], in experiment [3], in experiment [4], in experiment [5] and in experiment [6] was > 100 µM in each case. Further, the TGI in [7], in [8], in experiment [9], in experiment [10] and in experiment [11] was > 100 µM throughout.

On to `COc1ccc2ccccc2c1/C=C/C(=O)c1ccccc1`, for which the TGI in experiment [1] was 9.69 µM; in [2], 14.7 µM; in [3], 7.18 µM; in [4], 6.97 µM; in [5] it was 11 µM; in experiment [6], 14.6 µM. The TGI in experiment [7] came to 6.53 µM; in experiment [8], 7.31 µM; in experiment [9], 9.36 µM; in experiment [10], 7.23 µM; in experiment [11], 11.1 µM.

On to `O=C(N/N=C\c1cccc2c([N+](=O)[O-])cccc12)Nc1ccccc1`, for which the TGI in [1] was 35.2 µM; in experiment [2], 29.3 µM; in experiment [3] it was 25 µM; in experiment [4], 30.4 µM; in experiment [5], 18.9 µM; in experiment [6], 38.4 µM. For the same compound, the TGI in experiment [7] was 35.8 µM; in experiment [8] it was 49.4 µM; in experiment [9] it was 26.4 µM; in experiment [10], 27.3 µM; in experiment [11], 27.3 µM.

In the case of `C(=Nc1ccc(-c2nc3ccccc3[nH]2)cc1)c1cccs1`, the TGI in [1] was > 100 µM; in experiment [2], 86.4 µM; in experiment [3] it was > 100 µM; in experiment [4], 98.2 µM; in experiment [5], > 100 µM; in experiment [6] it was > 100 µM. For the same compound, the TGI in [7], in experiment [8], in experiment [9], in [10] and in [11] was > 100 µM each time.

Consider `CC(C)(C)OC(=O)NC(Cc1ccc(OCc2ccccc2)cn1)C(=O)N1CCCCC1` (configuration not stated), for which the TGI was > 100 µM in [1]; 60.7 µM in experiment [2]; 49 µM in experiment [3]; > 100 µM in experiment [4]; > 100 µM in [5]; > 100 µM in [6]. For the same compound, the TGI in [7] is > 100 µM; in [8], > 100 µM; in [9], 71.4 µM; in experiment [10], > 100 µM; in experiment [11], > 100 µM.

As for `N=C(N)c1ccc(C(NC(=O)CNS(=O)(=O)c2ccc3ccccc3c2)P(=O)(Oc2ccccc2)Oc2ccccc2)cc1` (configuration not stated), the TGI in experiment [1] was > 100 µM; in experiment [2], 66.2 µM; in experiment [3], > 100 µM; in experiment [4] it was > 100 µM; in experiment [5], > 100 µM; in experiment [6], > 100 µM. In addition, the TGI was > 100 µM in experiment [7]; > 100 µM in [8]; > 100 µM in experiment [9]; 71.3 µM in experiment [10]; > 100 µM in experiment [11].

`COC(CNC(=O)C(C)NC(=O)CCc1ccccc1)OC` (configuration not stated): the TGI in experiment [1], in experiment [2], in [3], in [4], in experiment [5] and in experiment [6] was > 100 µM each time. The TGI in experiment [7], in experiment [8], in experiment [9], in experiment [10] and in experiment [11] was > 100 µM throughout.

Take `C[N+](C)(C)CC1CCCCCCCCCCC1=O` (configuration not stated): the TGI in experiment [1], in experiment [2], in experiment [3], in experiment [4], in experiment [5] and in experiment [6] was > 100 µM each time. The TGI in experiment [7], in [8], in [9], in experiment [10] and in experiment [11] was > 100 µM each time.

As to `CCOP(C)(=O)C(N)Cc1ccc(OC)c(OC)c1` (configuration not stated), the TGI in experiment [1], in experiment [2], in [3], in experiment [4], in experiment [5] and in [6] was > 100 µM throughout. In addition, the TGI in experiment [7], in [8], in experiment [9], in experiment [10] and in [11] was > 100 µM throughout.

As for `Oc1c(CN2CCOCC2)ccc2cccnc12`, the TGI in experiment [1] is > 10 µM; in [2] it was 8.26 µM; in [3], > 10 µM; in [4], > 10 µM; in [5], > 10 µM; in experiment [6] it was 7.81 µM. Further, the TGI in experiment [7], in experiment [8], in experiment [9], in experiment [10] and in experiment [11] was > 10 µM each time.

As for `CCOCc1nc2c(OC)cc(-c3nc4ccc(N5CCN(C)CC5)cc4[nH]3)c(OC)c2[nH]1`, the TGI was > 100 µM in experiment [1]; > 100 µM in [2]; 45.8 µM in experiment [3]; > 100 µM in [4]; > 100 µM in experiment [5]; 58.2 µM in experiment [6]. For the same compound, the TGI in [7] was > 100 µM; in experiment [8] it was 81.9 µM; in experiment [9], 41.8 µM; in [10], 36.1 µM; in [11] it was > 100 µM.

On to `COc1ccc(C(=C(Cl)c2ccccc2)c2ccc(OC)cc2)cc1`, for which the TGI in experiment [1], in experiment [2], in [3], in experiment [4], in experiment [5] and in experiment [6] was > 100 µM throughout. The TGI in experiment [7], in experiment [8], in experiment [9], in experiment [10] and in [11] was > 100 µM each time.

On to `COc1cccc(-c2ccc3c4c2O[C@H]2C(=O)CC[C@@]5(O)[C@@H](C3)N(CC3CC3)CC[C@]425)c1`, for which the TGI in experiment [1] was found to be 64.8 µM; in experiment [2], 35.1 µM; in experiment [3], 25.6 µM; in experiment [4], 38.4 µM; in experiment [5], 41.4 µM; in experiment [6], 32.9 µM. Further, the TGI in [7] stood at 29.2 µM; in [8], 30.3 µM; in [9], 28.3 µM; in experiment [10] it was 29 µM; in experiment [11], 35.9 µM.

Consider `CCN(CC)C(=O)Cn1c(C)cc2ccccc21`, for which the TGI in experiment [1], in experiment [2], in experiment [3], in experiment [4], in [5] and in [6] was > 100 µM each time. The TGI in experiment [7], in experiment [8], in experiment [9], in experiment [10] and in [11] was > 100 µM in each case.

Regarding `O=C(NNC(=S)Nc1cccc(Cl)c1)c1cc(-c2ccccc2)nc2ccccc12`, the TGI in experiment [1] was found to be 34.4 µM; in experiment [2], 34.3 µM; in experiment [3], 33.4 µM; in experiment [4], 30.2 µM; in [5], 37.1 µM; in experiment [6], 34.9 µM. Besides, the TGI in experiment [7] stood at 31.3 µM; in experiment [8], 33.2 µM; in experiment [9] it was 29.8 µM; in experiment [10] it was 29.8 µM; in [11], 31.8 µM.

For `CCOC(=O)c1nc2ccc(C(F)(F)F)cc2nc1NCc1cc(OC)c(OC)c(OC)c1`, the TGI in experiment [1], in experiment [2], in [3], in experiment [4], in [5] and in [6] was > 100 µM throughout. In addition, the TGI is > 100 µM in experiment [7]; > 100 µM in experiment [8]; 99.5 µM in [9]; > 100 µM in [10]; > 100 µM in experiment [11].

Regarding `c1ccc2c(c1)ccn2CCc1c[nH]c2ccccc12`, the TGI in experiment [1], in [2], in [3], in experiment [4], in experiment [5] and in experiment [6] was > 10 µM each time. Further, the TGI in experiment [7], in experiment [8], in experiment [9], in experiment [10] and in experiment [11] was > 10 µM in each case.

As to `O=C1CC(=Nc2ccc(Cl)cc2)C(c2ccccc2)N1c1ccccc1` (configuration not stated), the TGI is 70.9 µM in experiment [1]; 41.6 µM in [2]; 6.32 µM in experiment [3]; 54.6 µM in experiment [4]; > 100 µM in experiment [5]; 7.22 µM in experiment [6]. In addition, the TGI in [7] is > 100 µM; in [8], 85.2 µM; in experiment [9] it was > 100 µM; in experiment [10], 94.8 µM; in [11] it was > 100 µM.

Consider `CCOC(=O)/C=C(/C(=O)OCC)n1ccc(=O)n(Cc2cn(COCCOC(C)=O)nn2)c1=O`, for which the TGI in [1] is 41.4 µM; in experiment [2], 30.4 µM; in experiment [3], 36 µM; in experiment [4], 5.04 µM; in experiment [5], > 100 µM; in [6] it was 16 µM. Further, the TGI in experiment [7] was found to be 29 µM; in [8], 67.9 µM; in experiment [9] it was 31.9 µM; in experiment [10] it was 34.5 µM; in experiment [11], 28 µM.
